Assay results from ChEMBL document CHEMBL3525916, “Investigation of figopitant and its metabolites in rat tissue by combining whole-body autoradiography with liquid extraction surface analysis mass spectrometry” (Drug Metab Dispos, 2012).

The compounds below were run on Rattus norvegicus (assay: Retention time in albino Wistar Hannover rat treated with 5 mg/kg, iv of [14C]figopitant). Conditions: in vivo.
Type: ADME, organism-based
Parameters: dose 5 mg/kg, route intravenous
With `CN(CCc1cc(C(F)(F)F)cc(C(F)(F)F)c1)C(=O)[C@@H](NCCN)c1ccccc1` the Retention_time was 11.9 min. `CN(CCc1cc(C(F)(F)F)cc(C(F)(F)F)c1)C(=O)[C@H](c1ccccc1)N1CCNCC1` was tested, and the Retention_time was 14.5 min. Compound `CN(CC(O)c1cc(C(F)(F)F)cc(C(F)(F)F)c1)C(=O)[C@H](c1ccccc1)N1CCN(CC2CC2)CC1` (stereo partly drawn) has a Retention_time of 24.2 min.
